Measured values: paper PMC6711404 (Science signaling, 2017)
Where “and” joins values, the source holds several entries; their conditions need not be identical. Equal entries are not always repeated.

Assays:
[1] = tested on: pRII (PKA-II signaling activity) in mouse sensory neurons; assay type: cell-based
[2] = tested on: pRII (PKA-II signaling activity) in rat sensory neurons; assay type: cell-based; settings: for IC50: read-out: IC50 on pRII signals induced by 5-HT

For “8-bromoadenosine-3′,5′-cyclic monophosphorothioate, Sp-isomer, and acetoxymethyl ester [Sp-8-Br-cAMPS-AM]”, the “pRII response in Nav1.7-/- versus Nav1.7+/+ cultures” value [1] was “the same”.
For NCCc1c[nH]c2ccc(O)cc12 [5-HT], the “Neuron subgroups in which pRII intensity is increased” value [2] was “predominately activated RIIβ(+) neurons”, the “Numbers of RIIβ(+) neurons responsive to 5-HT” value [1] was 27.8 ± 1.3% and 19.1 ± 1.2% and the “Smaller sized sensory neurons with increased pRII signals” value [1] was 17% and 21%. For the same compound, the “pRII response in Nav1.7-/- versus Nav1.7+/+ cultures” value [1] was “the maximum amplitude but not the EC50 of the pRII response to 5-HT was reduced”.
C=C[C@@]1(C)CC(=O)[C@]2(O)[C@@]3(C)[C@@H](O)CCC(C)(C)[C@@H]3[C@H](O)[C@H](OC(C)=O)[C@@]2(C)O1 [Fsk, forskolin] was tested, and the “Neuron subgroups in which pRII intensity is increased” value [2] was “all rat sensory neurons, both RIIβ(-) and RIIβ(+) neurons”, the “Population of Fsk-responding cells” value [1] was 28% and 23% and the “pRII response in Nav1.7-/- versus Nav1.7+/+ cultures” value [1] was “the same”.
For Cn1cc(C(=O)OCC2CCN(CCNS(C)(=O)=O)CC2)c2ccccc21 [GR113808], the “Effect on 5-HT-induced pRII intensity” value [2] was “blocked” and the IC50 [2] was 0.0086 µM.
CCCCC[C@H](O)/C=C/[C@@H]1[C@H]2C/C(=C/CCCC(=O)O)O[C@H]2C[C@H]1O [PGI2, prostacyclin] was tested, and the “Neuron subgroups in which pRII intensity is increased” value [2] was “predominately activated RIIβ(+) neurons” and the “pRII response in Nav1.7-/- versus Nav1.7+/+ cultures” value [1] was “the same”.
For O=C1CC[C@@]2(O)[C@H]3Cc4ccc(O)c5c4[C@@]2(CCN3CC2CC2)[C@H]1O5 [naltrexone], the “Effect on 5-HT-induced pRII intensity” value [2] was “no effect”, the “Effect on basal pRII intensity” value [2] was “no effect” and the “Effect on baseline amount of pRII” value [1] was “Neither fentanyl nor naltrexone altered”.
In the case of CTOP, the “Effect on 5-HT-induced pRII intensity” value [2] is reported as “did not affect”, the “Effect on DAMGO inhibition of the 5-HT-induced increase in pRII” value [2] is reported as “partially” and the “Effect on basal pRII intensity” value [2] is reported as “did not affect”.
DAMGO was tested, and the IC50 [2] was 0.321 µM and the “Inhibition of 5-HT-induced pRII: Nav1.7-/- versus wild-type neurons” value [1] was “The IC50 to inhibit 5-HT-induced pRII was similar, but the maximum response was greater”.
